Holding throughout (format): functional, cell-based
In experiment [1] the test system is A549. In words: Cytotoxicity against human A549 cells assessed as reduction in cell viability incubated for 48 hrs by MTT assay. The following applies: A549, 48 h. In general terms: Tetrazolium dyes change colour on reduction, which living cells bring about.
Experiment [2] concerns HCT-116. Briefly: Cytotoxicity against human HCT-116 cells assessed as reduction in cell viability incubated for 48 hrs by MTT assay. The following applies: HCT-116, 48 h.
A further experiment has as its system HEK293. In words: Cytotoxicity against HEK293 cells assessed as cell growth inhibition. Particulars: Homo sapiens.
In experiment [3] the test system is HCT-116. Briefly: Cytotoxicity against human HCT-116 cells assessed as reduction in cell viability incubated for 24 hrs by MTT assay. Particulars: HCT-116, 24 h.
For a further experiment, the system named is RKO. Briefly: Cytotoxicity against human RKO cells assessed as inhibition of cell growth measured after 48 hrs by MTT assay.
Experiment [4] deals with SF-268. In words: Cytotoxicity against human SF-268 cells assessed as reduction in cell growth incubated for 48 hrs by SRB assay. The following applies: SF-268, 48 h. (In SRB staining, fixed cells bind dye roughly in proportion to their protein.)
The subject of experiment [5] is MCF7. In words: Cytotoxicity against human MCF7 cells assessed as reduction in cell growth incubated for 48 hrs by SRB assay. The following applies: MCF7, 48 h.
For another experiment, the system named is NCI-H460. In words: Cytotoxicity against human NCI-H460 cells assessed as reduction in cell growth incubated for 48 hrs by SRB assay. Particulars: NCI-H460, 48 h.
Experiment [6] concerns HepG2. In words: Cytotoxicity against human HepG2 cells assessed as reduction in cell growth incubated for 48 hrs by SRB assay. The following applies: HepG2, 48 h.
A short description of experiment [7]: Cytotoxicity against human AML1 cells expressing FLT3-ITD mutant assessed as cell viability.
Experiment [8] has as its system A549. In words: Cytotoxicity against human A549 cells assessed as reduction in cell growth by MTT assay.
The subject of experiment [9] is HCT-116. Briefly: Cytotoxicity against human HCT-116 cells assessed as reduction in cell growth by MTT assay.
The test system of a further experiment is K562. Briefly: Cytotoxicity against human K562 cells assessed as cell growth inhibition by MTT assay.
Another experiment deals with NCI-H1975. Briefly: Cytotoxicity against human NCI-H1975 cells assessed as cell growth inhibition by MTT assay.
Another experiment has as its system HL-60. In words: Cytotoxicity against human HL-60 cells assessed as cell growth inhibition by MTT assay.
The test system of experiment [10] is A549. Briefly: Antiproliferative activity against human A549 cells assessed as reduction in cell viability incubated for 72 hrs by SRB assay. The following applies: A549, 72 h.
Another experiment relates to HT-29. Briefly: Antiproliferative activity against human HT-29 cells assessed as reduction in cell viability incubated for 72 hrs by SRB assay. Particulars: HT-29, 72 h.
The next experiment has as its system MDA-MB-231. Briefly: Antiproliferative activity against human MDA-MB-231 cells assessed as reduction in cell viability incubated for 72 hrs by SRB assay. Particulars: MDA-MB-231, 72 h.
The test system of experiment [11] is SF-268. In words: Cytotoxicity against human SF-268 cells assessed as inhibition of cell growth incubated for 72 hrs by SRB assay. The following applies: SF-268, 72 h.
Experiment [12] has as its system MCF7. Briefly: Cytotoxicity against human MCF7 cells assessed as inhibition of cell growth incubated for 72 hrs by SRB assay. The following applies: MCF7, 72 h.
In experiment [13] the test system is A549. In words: Cytotoxicity against human A549 cells assessed as inhibition of cell growth incubated for 72 hrs by SRB assay. Particulars: A549, 72 h.
For experiment [14], the system named is HepG2. In words: Cytotoxicity against human HepG2 cells assessed as inhibition of cell growth incubated for 72 hrs by SRB assay. The following applies: HepG2, 72 h.
Experiment [15] relates to A549. In words: Cytotoxicity against human A549 cells assessed as reduction in cell viability incubated for 24 hrs by CCK-8 assay. The following applies: A549, 24 h.
For experiment [16], the system named is HeLa. Briefly: Cytotoxicity against human HeLa cells assessed as reduction in cell viability incubated for 24 hrs by CCK-8 assay.
Experiment [17] relates to HCT-116. Briefly: Antiproliferative activity against human HCT-116 cells assessed as reduction in cell growth.
The test system of a further experiment is AGS. In words: Antiproliferative activity against human AGS cells assessed as reduction in cell viability measured for 48 hrs by Cell-Titer Glo assay.
The subject of experiment [18] is A549. In words: Antiproliferative activity against human A549 cells assessed as reduction in cell viability incubated for 72 hrs by CCK-8 assay. The following applies: A549, 72 h.
Experiment [19] concerns MCF7. In words: Antiproliferative activity against human MCF7 cells assessed as reduction in cell viability incubated for 72 hrs by MTT assay. Particulars: MCF7, 72 h.
Another experiment deals with U-937. Briefly: Cytotoxicity against human U-937 cells assessed as reduction in cell growth incubated for 48 hrs by CCK-8 assay. Particulars: U-937, 48 h.
The subject of a further experiment is PC-3. Briefly: Cytotoxicity against human PC-3 cells assessed as reduction in cell growth incubated for 48 hrs by CCK-8 assay. The following applies: PC-3, 48 h.
The test system of experiment [20] is HCT-116. In words: Antiproliferative activity against human HCT-116 cells assessed as reduction in cell viability incubated for 24 hrs by MTT assay. The following applies: HCT-116, 24 h.
Another experiment deals with QG-56. Briefly: Cytotoxicity against human QG-56 cells assessed as reduction in cell growth incubated for 24 hrs by MTT assay. Particulars: QG-56, 24 h.
The test system of another experiment is DU-145. In words: Cytotoxicity against human DU-145 cells assessed as cell growth inhibition measured after 48 hrs by MTT assay. Particulars: DU-145, 48 h.
The subject of experiment [21] is HeLa. In words: Cytotoxicity against human HeLa cells assessed as cell growth inhibition.
The next experiment deals with L1210. Briefly: Cytotoxicity against mouse L1210 assessed as cell growth inhibition.

The values that follow come from ChEMBL document CHEMBL5500324, “The potential of marine-derived piperazine alkaloids: Sources, structures and bioactivities” (Eur J Med Chem, 2024).

In brackets after ≈: the same amount, converted by molar mass.

With `CC(C)/C=c1/[nH]c(=O)/c(=C/c2ccccc2)n(C)c1=O`, the IC50 (in general, the midpoint of a concentration-inhibition curve) in the experiment with A549 [1] is 89.4 µg/mL (≈ 331 µM); in the experiment on HCT-116 [2], greater than 100 µg/mL.
`C=c1c(=O)n2c(cc3ccccc32)c(=O)n1C`: the half-maximal inhibitory concentration (IC50) with HEK293 was 30.1 µM; in the experiment with HCT-116 [3], 10.3 µM; with RKO, 33.6 µM; in the experiment on SF-268 [4], 3.3 µM; with MCF7 [5] it was 4.67 µM; in the experiment with NCI-H460, 12.3 µM. The IC50 with HepG2 [6] turned out to be 2290 nM.
`CC1(C)C=Cc2c(ccc3c2N[C@@]24N5C(=O)[C@]6(O)CCCN6C(=O)[C@]5(O)C[C@@]32O[C@H](CO)C4(C)C)O1`: the IC50 in experiment [7] was 10 µM.
In the case of `CC(C)C[C@H]1NC(=O)[C@@H](Cc2ccc3c(c2)OCO3)NC1=O`, the IC50 in the experiment with A549 [1] worked out at 28.4 µg/mL (≈ 93.3 µM); in the experiment with HCT-116 [2], 45.4 µg/mL (≈ 149 µM).
For the compound `CN1C(=O)[C@]23SSS[C@]1(CO)C(=O)N2[C@H]1Nc2ccccc2C1(C12c4ccccc4N[C@H]1N1C(=O)[C@@]4(CO)SSSS[C@]1(C(=O)N4C)[C@H]2O)[C@@H]3O` (stereo not given in full), the IC50 is 1900 nM in the experiment on A549 [8]; 2100 nM in the experiment on HCT-116 [9]; 1900 nM in the experiment on K562; 3600 nM in the experiment with NCI-H1975; 1900 nM in the experiment with HL-60.
For `CN1C[C@@H](c2c[nH]c3cc(Br)ccc23)NC[C@@H]1c1c[nH]c2ccccc12`, the IC50 in the experiment with A549 [10] worked out at 2.7 µM; with HT-29, 3.3 µM; in the experiment with MDA-MB-231 it was 4.7 µM.
As to `CC(C)=CCc1[nH]cnc1/C=C1\NC(=O)CNC1=O`, the IC50 in [7] was 0.22 µM.
`CN1C[C@@H](c2c[nH]c3cc(Br)ccc23)N(C)C[C@@H]1c1c[nH]c2cc(Br)ccc12`: the IC50 in the experiment on A549 [10] was 20.3 µM; in the experiment on HT-29 it was 19.3 µM; in the experiment with MDA-MB-231, 28 µM.
On to `CN1C(=O)[C@H]2CSC3=C(C(=O)c4ccccc4C3=O)N2C[C@@H]1CO`, for which the IC50 was 17 µM with SF-268 [11], 25.7 µM in the experiment on MCF7 [12], 34.4 µM in the experiment with A549 [13] and 31.2 µM in the experiment on HepG2 [14].
With `CC[C@H](C)[C@]1(OC)NC(=O)[C@@H](Cc2ccccc2)N2C(=O)C3=C(NC21)OC=CC=C3` (stereo not given in full), the IC50 came out at 100 µM with A549 [15] and 190 µM in the experiment with HeLa [16].
For `CC(=O)O[C@H]1C=CC=C2C[C@@]34SS[C@]5(CC6=COC=C[C@H](OC(C)=O)[C@H]6N5C3=O)C(=O)N4[C@@H]21`, the half-inhibitory concentration (IC50) in the experiment with HCT-116 [17] was found to be 13.8 µM; in the experiment on AGS, 12 µM; in the experiment with A549 [18], 12 µM; with MCF7 [19], 10 µM.
On to `COc1ccc2c3c(n(CC=C(C)C)c2c1)[C@H](C=C(C)C)N1C(=O)[C@@H]2CCCN2C(=O)[C@@]1(O)[C@H]3OC`, for which the IC50 in the experiment with U-937 is 25.3 µM; with PC-3, 98.7 µM.
As for `COC1=C(C)C(=O)C2=C(C1=O)[C@H](CO)N1[C@@H](C#N)[C@@H]3[C@@H](O)c4c(O)c(C)c(OC)c(O)c4[C@H]([C@@H]1C2)N3C`, the IC50 in the experiment with HCT-116 [20] was 455 nM; with QG-56, 618 nM; with DU-145, 448 nM.
For `CC(=O)O[C@H]1C=COC=C2C[C@@]34SS[C@]5(CC6=COC=C[C@H](OC(C)=O)[C@H]6N5C3=O)C(=O)N4[C@@H]21`, the half-inhibitory concentration (IC50) in the experiment on HCT-116 [17] came out at 21 µM; with AGS, 32 µM; with A549 [18] it was 23 µM; in the experiment on MCF7 [19], 36 µM.
`CN1C(=O)[C@]23SSS[C@]1(C)C(=O)N2[C@@H]1Nc2ccccc2C1(C12c4ccccc4N[C@@H]1N1C(=O)[C@@]4(CO)SSS[C@]1(C(=O)N4C)[C@H]2O)[C@@H]3O` (stereo not given in full): the IC50 with A549 [8] is 400 nM; in the experiment with HCT-116 [9] it was 400 nM; in the experiment with K562, 400 nM; in the experiment on NCI-H1975, 200 nM; in the experiment with HL-60 it was 1900 nM.
As for `CN1C(=O)[C@]23SSS[C@]1(CO)C(=O)N2[C@H]1Nc2ccccc2C1(C12c4ccccc4N[C@H]1N1C(=O)[C@@]4(CO)SSS[C@]1(C(=O)N4C)[C@H]2O)[C@@H]3O` (stereo not given in full), the IC50 came out at 700 nM in the experiment with A549 [8]; 300 nM in the experiment on HCT-116 [9]; 1000 nM in the experiment on K562; 800 nM with NCI-H1975; 1500 nM in the experiment on HL-60.
As for `CC1(C)C=Cc2c(ccc3c2NC(=O)[C@@]32C[C@@]34NC(=O)[C@]5(CCCN5C3=O)C[C@H]4C2(C)C)O1` [NOTOAMIDE B], the IC50 in the experiment with HeLa [21] turned out to be 52 µg/mL (≈ 116 µM); in the experiment with L1210, 36 µg/mL (≈ 80.4 µM).
